Experimental data reported in ChEMBL document CHEMBL2331341, “Determination of the α-conotoxin Vc1.1 binding site on the α9α10 nicotinic acetylcholine receptor” (J Med Chem, 2013).
Positions of bridges follow the written chain, without caps; N, C: chain ends. Residues, ends and D or L forms follow the SMILES beside them.

Legend:
[1] = target: Nicotinic acetylcholine receptor alpha9/alpha10 (Rattus norvegicus, UniProt P43144+Q9JLB5); experiment: Inhibition of rat alpha9/alpha10 nAChR expressed in Xenopus oocytes assessed as inhibition of acetylcholine-induced currents after 300 secs by two-electrode voltage clamp assay; assay type: cell-based, Oocyte
[2] = Selectivity ratio of IC50 for human alpha9 rat alpha10 nAChR to IC50 for rat alpha9/alpha10 nAChR
[3] = Inhibition of human alpha9 rat alpha10 nAChR expressed in Xenopus oocytes assessed as inhibition of acetylcholine-induced currents after 300 secs by two-electrode voltage clamp assay; assay type: cell-based; settings: Oocyte
Oocyte = experiment: Inhibition of human alpha9 rat alpha10 nAChR expressed in Xenopus oocytes assessed as inhibition of acetylcholine-induced currents at 100 nM after 300 secs by two-electrode voltage clamp assay; assay type: cell-based

Sequence of Nicotinic acetylcholine receptor alpha9/alpha10 (P43144 whole entry): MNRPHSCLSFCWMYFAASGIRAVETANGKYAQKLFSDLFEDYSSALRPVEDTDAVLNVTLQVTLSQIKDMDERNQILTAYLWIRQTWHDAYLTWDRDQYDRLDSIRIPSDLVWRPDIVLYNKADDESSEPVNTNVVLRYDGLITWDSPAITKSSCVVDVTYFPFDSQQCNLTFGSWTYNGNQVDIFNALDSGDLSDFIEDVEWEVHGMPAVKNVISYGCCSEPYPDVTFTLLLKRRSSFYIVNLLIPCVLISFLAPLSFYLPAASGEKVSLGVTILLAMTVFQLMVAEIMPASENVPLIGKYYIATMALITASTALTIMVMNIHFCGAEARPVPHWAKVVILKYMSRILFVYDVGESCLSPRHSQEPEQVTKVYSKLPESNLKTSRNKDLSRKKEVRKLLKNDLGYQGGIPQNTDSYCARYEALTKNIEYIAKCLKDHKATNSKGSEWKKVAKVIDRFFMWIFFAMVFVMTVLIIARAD
Sequence of Nicotinic acetylcholine receptor alpha9/alpha10 (Q9JLB5 whole entry): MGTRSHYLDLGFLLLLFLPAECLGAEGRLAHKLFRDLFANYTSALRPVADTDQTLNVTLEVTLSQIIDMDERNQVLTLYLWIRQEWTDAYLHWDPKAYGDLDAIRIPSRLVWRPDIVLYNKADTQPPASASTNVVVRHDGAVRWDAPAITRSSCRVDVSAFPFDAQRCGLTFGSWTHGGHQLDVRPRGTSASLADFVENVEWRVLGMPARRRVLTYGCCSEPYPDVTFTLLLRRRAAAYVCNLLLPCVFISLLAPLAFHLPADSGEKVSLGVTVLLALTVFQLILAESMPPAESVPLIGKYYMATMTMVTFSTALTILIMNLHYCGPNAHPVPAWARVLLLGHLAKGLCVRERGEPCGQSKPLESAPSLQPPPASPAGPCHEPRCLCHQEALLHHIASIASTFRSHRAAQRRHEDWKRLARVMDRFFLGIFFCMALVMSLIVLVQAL

CC[C@H](C)[C@@H]1NC(=O)[C@H](CCC(=O)O)NC(=O)[C@@H]2CCCN2C(=O)[C@H](Cc2cnc[nH]2)NC(=O)[C@H](CC(=O)O)NC(=O)[C@H](Cc2ccc(O)cc2)NC(=O)[C@H](CC(N)=O)NC(=O)[C@@H]2CSSC[C@H](NC(=O)CN)C(=O)N[C@@H](CSSC[C@@H](C(=O)O)NC1=O)C(=O)N[C@@H](CO)C(=O)N[C@@H](CC(=O)O)C(=O)N1CCC[C@H]1C(=O)N[C@@H](CCCNC(=N)N)C(=O)N2
IC50 [1]: 70 nM
Ratio IC50 [2]: 14
IC50 [3]: 975 nM

CC[C@H](C)[C@@H]1NC(=O)[C@H](CCC(=O)O)NC(=O)[C@@H]2CCCN2C(=O)[C@H](Cc2cnc[nH]2)NC(=O)[C@H](CC(=O)O)NC(=O)[C@H](Cc2ccccc2)NC(=O)[C@H](CC(N)=O)NC(=O)[C@@H]2CSSC[C@H](NC(=O)CN)C(=O)N[C@@H](CSSC[C@@H](C(=O)O)NC1=O)C(=O)N[C@@H](CO)C(=O)N[C@@H](CC(=O)O)C(=O)N1CCC[C@H]1C(=O)N[C@@H](CCCNC(=N)N)C(=O)N2 (H-GCCSDPRCNFDHPEIC-OH; disulfide 2-8, 3-16)
IC50 [1]: 500 nM
inhibition (Oocyte): 10%
IC50 [3]: 763 nM

CC[C@H](C)[C@@H]1NC(=O)[C@H](CCC(=O)O)NC(=O)[C@@H]2CCCN2C(=O)[C@H](Cc2cnc[nH]2)NC(=O)[C@H](CC(=O)O)NC(=O)[C@H](Cc2c[nH]c3ccccc23)NC(=O)[C@H](CC(N)=O)NC(=O)[C@@H]2CSSC[C@H](NC(=O)CN)C(=O)N[C@@H](CSSC[C@@H](C(=O)O)NC1=O)C(=O)N[C@@H](CO)C(=O)N[C@@H](CC(=O)O)C(=O)N1CCC[C@H]1C(=O)N[C@@H](CCCNC(=N)N)C(=O)N2 (H-GCCSDPRCNWDHPEIC-OH; disulfide 2-8, 3-16)
IC50 [1]: 43 nM
inhibition (Oocyte): 80%
IC50 [3]: 33 nM
